Experimental data from article PMC12372887, “Mechanism and cellular actions of the potent AMPK inhibitor BAY-3827” (Science Advances, 2025).

Test system: mouse primary adipocytes
Assay: Immunoblot of signaling in primary adipocytes
Assay type: cell-based
Protocol: Epidydimal adipose tissue excised from mice was digested with collagenase (1 mg/ml) in Krebs-Ringer medium (120 mM NaCl, 4.7 mM KCl, 1.2 mM KH2PO4, and 1.2 mM MgSO4) containing 25 mM Hepes (pH 7.4), 200 nM adenosine, 2 mM glucose, and 3% (w/v) bovine serum albumin (BSA) (KRH buffer) at 37°C in a shaking incubator. Adipocytes were isolated by filtering and washing in KRH buffer. For preparation of protein extracts for Western blot, adipocyte suspensions [0.7 to 1 ml of 10% (v/v) cells] were preincubated with BAY-3827 or BAY-974 compounds or 0.1% DMSO for 1 hour at 37°C in a shaking (80 rpm) water bath followed by either 1 hour of incubation with 10 μM MK-8722 or 30 min with 0.1 nM insulin (Novo Nordisk) in KRH buffer, as indicated in the figure legends. […] Lysates were centrifuged at 13,000g for 15 min (4°C), and supernatant protein concentration was determined by the Bradford assay. […]
For adipocyte experiments, cell lysates (25 μg protein) were heated at 95°C for 3 min in LDS sample buffer, subjected to polyacrylamide gel electrophoresis on precast Novex gradient gels (Thermo Fisher Scientific) and electrotransferred to nitrocellulose membranes. […] Luminescence signals were visualized in a ChemiDoc XRS+ (Bio-Rad) and quantified by densitometry using the software Image LabTM 5.1 (Bio-Rad). […]

Structure (SMILES): CCc1ccccc1C(=O)Nc1n[nH]c2c(C)c(F)c(C3C(C#N)=C(C)N(C)C(C)=C3C#N)cc12 [BAY-3827, N-[5-(3,5-dicyano-1,2,6-trimethyl-4H-pyridin-4-yl)-6-fluoro-7-methyl-1H-indazol-3-yl]-2-ethylbenzamide]
- basal and insulin-stimulated phosphorylation of Akt and TBC1D4 (10 μM): not significantly affected
- Raptor phosphorylation (varying doses, irrespective of MK-8722): dose-dependent reduction
